From patent US6960568B2, “Nucleosides and related processes, pharmaceutical compositions and methods” (Yale University, priority 2002, dated 2005)

Legend:
L1210 leukemia cells = experiment: Cytotoxicity against L1210 leukemia cell line in vitro; type: cell-based; settings: Mus musculus, drug concentration required to inhibit cancer cell replication by 50%, tested up to 100 μM
Procedure: (§1) The synthesized compounds were evaluated in vitro for their cytotoxicity against the L1210 and P388 leukemias, the CCRF-CEM lymphoblastic leukemia, and the B16F10 melanoma cell lines and the results are shown in Table 2.

B16F10 melanoma cells = experiment: Cytotoxicity against B16F10 melanoma cell line in vitro; type: cell-based; settings: Mus musculus, B16-F10; drug concentration required to inhibit cancer cell replication by 50%; tested up to 100 μM
Procedure: as §1

[1] = tested on: CCRF-CEM lymphoblastic leukemia cells; experiment: Cytotoxicity against CCRF-CEM lymphoblastic leukemia cell line in vitro; type: cell-based; settings: Homo sapiens, drug concentration required to inhibit cancer cell replication by 50%, tested up to 100 μM
Procedure: as §1

[2] = tested on: L1210, P388, CCRF-CEM and B16F10 cells; experiment: Cytotoxicity against the panel of neoplastic cell lines, summary in words; type: cell-based; settings: concentrations up to 100 μM
Procedure: as §1

P388 leukemia cells = experiment: Cytotoxicity against P388 leukemia cell line in vitro; type: cell-based; settings: Mus musculus, drug concentration required to inhibit cancer cell replication by 50%, tested up to 100 μM
Procedure: as §1

hepatitis B virus (HBV) = experiment: Antiviral assay against hepatitis B virus in vitro; type: cell-based; settings: maximum tested concentration 10 μM
Procedure: Antiviral assays were performed against hepatitis B virus (HBV) and human immunodeficiency virus (HIV-IIIB) in vitro as previously described. Lin, T. S.; Luo, M. Z.; Liu, M. C.; Pai, S. B.; Dutschman, G. E.; Cheng, Y. C., J. Med. Chem. 1994 37, 798-803.

Nc1nc(F)cc2c1ncn2[C@@H]1O[C@H](CO)[C@@H](O)[C@H]1O [Compound 38, 4-Amino-6-fluoro-1-(β-D-ribofuranosyl)imidazo[4,5-c]pyridine]
IC50 (L1210 leukemia cells): 35 µM
IC50 (B16F10 melanoma cells): 40 µM
IC50 [1]: 100 µM
activity against these neoplastic cell lines (in words) [2]: moderate to weak activities
IC50 (P388 leukemia cells): 50 µM

CNc1nc(F)cc2c1ncn2[C@@H]1O[C@H](CO)[C@@H](O)[C@H]1O [Compound 39, 6-Fluoro-4-methylamino-1-(β-D-ribofuranosyl)imidazo[4,5-c]pyridine]
IC50 (L1210 leukemia cells): > 100 µM
IC50 (B16F10 melanoma cells): > 100 µM
IC50 [1]: 100 µM
IC50 (P388 leukemia cells): > 100 µM

Nc1nc(F)cc2c1ncn2[C@@H]1O[C@H](CO)[C@@H](O)[C@@H]1O [Compound 43, 4-Amino-6-fluoro-1-β-D-arabinofuranosylimidazo[4,5-c]pyridine]
IC50 (L1210 leukemia cells): > 100 µM
IC50 (B16F10 melanoma cells): > 100 µM
IC50 [1]: > 100 µM
IC50 (P388 leukemia cells): > 100 µM

Nc1nc(F)cc2c1ncn2[C@H]1O[C@H](CO)[C@@H](O)[C@@H]1O [Compound 44, 4-Amino-6-fluoro-1-α-D-arabinofuranosylimidazo[4,5-c]pyridine]
IC50 (L1210 leukemia cells): > 100 µM
IC50 (B16F10 melanoma cells): > 100 µM
IC50 [1]: > 100 µM
IC50 (P388 leukemia cells): > 100 µM
melting point: 198 °C (dec.)

Nc1ncc(F)c2c1ncn2[C@@H]1O[C@H](CO)[C@@H](O)[C@H]1O [Compound 51, 4-Amino-7-fluoro-1-(β-D-ribofuranosyl)imidazo[4,5-c]pyridine]
IC50 (L1210 leukemia cells): 15 µM
EC50 (hepatitis B virus (HBV)): 9.2 µM
IC50 (B16F10 melanoma cells): 45 µM
IC50 [1]: 60 µM
activity against these neoplastic cell lines (in words) [2]: moderate to weak activities
IC50 (P388 leukemia cells): 100 µM

Nc1ncc(Cl)c2c1ncn2[C@@H]1O[C@H](CO)[C@@H](O)[C@H]1O [Compound 52, 4-Amino-7-chloro-1-(β-D-ribofuranosyl)imidazo[4,5-c]pyridine]
IC50 (L1210 leukemia cells): > 100 µM
IC50 (B16F10 melanoma cells): > 100 µM
IC50 [1]: > 100 µM
IC50 (P388 leukemia cells): > 100 µM
melting point: 169 °C (dec.)

Nc1nc(F)c(F)c2c1ncn2[C@@H]1O[C@H](CO)[C@@H](O)[C@H]1O [Compound 57, 4-Amino-6,7-difluoro-1-(β-D-ribofuranosyl)imidazo[4,5-c]pyridine]
IC50 (L1210 leukemia cells): 90 µM
IC50 (B16F10 melanoma cells): 100 µM
IC50 [1]: 40 µM
activity against these neoplastic cell lines (in words) [2]: moderate to weak activities
IC50 (P388 leukemia cells): 90 µM
melting point: 163 to 165 °C

Nc1nc(F)c(F)c2ncn([C@@H]3O[C@H](CO)[C@@H](O)[C@H]3O)c12 [Compound 58, 4-Amino-6,7-difluoro-3-(β-D-ribofuranosyl)imidazo[4,5-c]pyridine]
IC50 (L1210 leukemia cells): > 100 µM
EC50 (hepatitis B virus (HBV)): ≥ 10 µM
IC50 (B16F10 melanoma cells): > 100 µM
IC50 [1]: > 100 µM
IC50 (P388 leukemia cells): > 100 µM
melting point: 155 to 157 °C

Nc1nc(F)c(Cl)c2c1ncn2[C@@H]1O[C@H](CO)[C@@H](O)[C@H]1O [Compound 59, 4-Amino-7-chloro-6-fluoro-1-(β-D-ribofuranosyl)imidazo[4,5-c]pyridine]
IC50 (L1210 leukemia cells): 55 µM
EC50 (hepatitis B virus (HBV)): 7.5 µM
IC50 (B16F10 melanoma cells): 100 µM
IC50 [1]: 60 µM
activity against these neoplastic cell lines (in words) [2]: moderate to weak activities
IC50 (P388 leukemia cells): 90 µM
melting point: 175 to 177 °C

Nc1nc(F)c(Cl)c2ncn([C@@H]3O[C@H](CO)[C@@H](O)[C@H]3O)c12 [Compound 60, 4-Amino-7-chloro-6-fluoro-3-(β-D-ribofuranosyl)imidazo[4,5-c]pyridine]
IC50 (L1210 leukemia cells): > 100 µM
IC50 (B16F10 melanoma cells): > 100 µM
IC50 [1]: > 100 µM
IC50 (P388 leukemia cells): > 100 µM
melting point: 166 to 168 °C

Nc1[nH]c(=O)c2ncn([C@@H]3O[C@H](CO)[C@@H](O)[C@H]3O)c2c1Cl [Compound 61, 6-Amino-7-chloro-1,5-dihydro-1-β-D-ribofuranosylimidazo[4,5-c]pyridin-4-one]
IC50 (L1210 leukemia cells): 12 µM
IC50 (B16F10 melanoma cells): 35 µM
IC50 [1]: 30 µM
IC50 (P388 leukemia cells): 40 µM

Nc1[nH]c(=O)c2ncn([C@@H]3O[C@H](CO)[C@@H](O)[C@H]3O)c2c1Br [Compound 62, 6-Amino-7-bromo-1,5-dihydro-1-β-D-ribofuranosylimidazo[4,5-c]pyridin-4-one]
IC50 (L1210 leukemia cells): 3 µM
IC50 (B16F10 melanoma cells): 7 µM
IC50 [1]: 9 µM
IC50 (P388 leukemia cells): 7 µM
